Reference: publication PMC11520566, “Discovery of pyrazole-based analogs as CDK2 inhibitors with apoptotic-inducing activity: design, synthesis and molecular dynamics study” (RSC Advances, 2024)

Legend:
Assay type in all cases: cell-based, human
[1] = tested on: NCI-H460; assay: NCI 60 single dose screen, Non-small cell lung cancer; details: single dose 10 μM
Protocol: (§1) The newly synthesized pyrazoles 2a–g, 7a–d, 8a and b, 9, and 10 were submitted to the National Cancer Institute (NCI) Developmental Therapeutics Program (http://www.dtp.nci.nih.gov) for assessment of their potential antiproliferative activity against a panel of NCI 60 cancer cell lines. All compounds were approved for screening against the approved 60 cancer cell lines at a single dose of 10 μM. The human cancer cell lines were derived from 9 variant cancer types including leukemia, melanoma, lung, colon, CNS, ovarian, renal, prostate and breast cancers. The results are presented as percentage of growth inhibition (GI%) of the screened compounds against the full panel of cell lines.
(§2) Under sterile conditions, the cell lines were grown in RPMI 1640 media (Gibco, NY, USA) supplemented with 10% fetal bovine serum (Biocell, CA, USA), and […] cell/mL was used to test the growth inhibition activity of the synthesized compounds. The compounds with concentrations ranging from 0.01 to 100 μM were prepared in phosphate buffer saline. Each compound was initially solubilized in dimethyl sulfoxide (DMSO); however, each final dilution contained less than 1% DMSO. Solutions of different concentrations (0.2 mL) were pipetted into the separate well of a microtiter tray in duplicate. Cell culture (1.8 mL) containing a cell population of […] cells per mL was pipetted into each well. Controls, containing only phosphate buffer saline and DMSO at identical dilutions, were also prepared in the same manner. These cultures were incubated in a humidified incubator at 37 °C. The incubator was supplied with 5% CO2 atmosphere. After 48 h, the cells in each well were diluted 10 times with saline and counted using a Coulter counter. The counts were corrected for the dilution.[34]

[2] = tested on: NCI-H322M; assay: as above; details: single dose 10 μM
Protocol: as §1, §2

[3] = tested on: NCI-H23; assay: as above; details: single dose 10 μM
Protocol: as §1, §2

[4] = tested on: T-47D; assay: NCI 60 five dose assay, Breast cancer
[5] = tested on: HOP-62; assay: NCI 60 five dose assay, Non-small cell lung cancer
[6] = tested on: PC-3; assay: NCI 60 five dose assay, Prostate cancer
[7] = tested on: A498; assay: NCI 60 five dose assay, Renal cancer
[8] = tested on: MOLT-4; assay: NCI 60 five dose assay, Leukemia
[9] = tested on: HCC-2998; assay: NCI 60 five dose assay, Colon cancer
[10] = tested on: EKVX; assay: NCI 60 five dose assay, Non-small cell lung cancer
[11] = tested on: SF-268; assay: NCI 60 five dose assay, CNS cancer
[12] = tested on: IGROV1; assay: NCI 60 five dose assay, Ovarian cancer
[13] = tested on: DU-145; assay: NCI 60 five dose assay, Prostate cancer
[14] = tested on: CAKI-1; assay: NCI 60 five dose assay, Renal cancer
[15] = tested on: HCT-15; assay: NCI 60 five dose assay, Colon cancer
[16] = tested on: OVCAR-8; assay: NCI 60 five dose assay, Ovarian cancer
[17] = tested on: K-562; assay: NCI 60 five dose assay, Leukemia
[18] = Homo sapiens, read-out: LC50 (the source's name)

Question: `CC(=NNc1ccc(S(N)(=O)=O)cc1)c1ccc(NN=C2C(=O)NN=C2Nc2ccccc2)cc1` [Compound 4, 4-(2-(1-(4-(2-(5-oxo-3-(phenylamino)-1,5-dihydro-4H-pyrazol-4-ylidene)hydrazinyl)phenyl)ethylidene)hydrazinyl)benzene sulfonamide] was tested. Which GI% [1] did it give?
Answer: 91.13%

Question: And the GI% [2]?
Answer: 90.78%

Question: What about the GI% [3] of the same compound?
Answer: 99.80%

Question: What about the GI50 ([4]; Homo sapiens, T47D) of the same compound?
Answer: 2.22 µM

Question: And the CC50 ([4]; Homo sapiens, T47D, read-out: LC50 (the source's name))?
Answer: 23.9 µM

Question: And the “Percent Growth” value ([4]; Log10 Concentration -4.0 Molar)?
Answer: -88%

Question: And the “Percent Growth” value ([4]; Log10 Concentration -5.0 Molar)?
Answer: -27%

Question: What about the “Percent Growth” value ([4]; Log10 Concentration -6.0 Molar) of the same compound?
Answer: 91%

Question: What about the “Percent Growth” value ([4]; Log10 Concentration -7.0 Molar) of the same compound?
Answer: 98%

Question: And the “Percent Growth” value ([4]; Log10 Concentration -8.0 Molar)?
Answer: 90%

Question: What about the GI50 ([5]; Homo sapiens) of the same compound?
Answer: 2.05 µM

Question: And the CC50 [5, 18]?
Answer: 30.3 µM

Question: And the “Percent Growth” value ([5]; Log10 Concentration -4.0 Molar)?
Answer: -78%

Question: What about the “Percent Growth” value ([5]; Log10 Concentration -5.0 Molar) of the same compound?
Answer: -24%

Question: And the “Percent Growth” value ([5]; Log10 Concentration -6.0 Molar)?
Answer: 84%

Question: And the “Percent Growth” value ([5]; Log10 Concentration -7.0 Molar)?
Answer: 95%

Question: And the “Percent Growth” value ([5]; Log10 Concentration -8.0 Molar)?
Answer: 91%

Question: What about the GI50 ([6]; Homo sapiens) of the same compound?
Answer: 3.06 µM

Question: What about the CC50 [6, 18] of the same compound?
Answer: 35.8 µM

Question: What about the “Percent Growth” value ([6]; Log10 Concentration -4.0 Molar) of the same compound?
Answer: -95%

Question: What about the “Percent Growth” value ([6]; Log10 Concentration -5.0 Molar) of the same compound?
Answer: 5%

Question: And the “Percent Growth” value ([6]; Log10 Concentration -6.0 Molar)?
Answer: 92%

Question: What about the “Percent Growth” value ([6]; Log10 Concentration -7.0 Molar) of the same compound?
Answer: 95%

Question: What about the “Percent Growth” value ([6]; Log10 Concentration -8.0 Molar) of the same compound?
Answer: 93%

Question: And the GI50 ([7]; Homo sapiens)?
Answer: 11.4 µM

Question: What about the CC50 [7, 18] of the same compound?
Answer: 94.7 µM

Question: What about the “Percent Growth” value ([7]; Log10 Concentration -4.0 Molar) of the same compound?
Answer: -53%

Question: And the “Percent Growth” value ([7]; Log10 Concentration -5.0 Molar)?
Answer: 56%

Question: And the “Percent Growth” value ([7]; Log10 Concentration -6.0 Molar)?
Answer: 87%

Question: What about the “Percent Growth” value ([7]; Log10 Concentration -7.0 Molar) of the same compound?
Answer: 87%

Question: And the “Percent Growth” value ([7]; Log10 Concentration -8.0 Molar)?
Answer: 77%

Question: What about the GI50 ([8]; Homo sapiens) of the same compound?
Answer: 1.64 µM

Question: And the CC50 [8, 18]?
Answer: 34.9 µM

Question: What about the “Percent Growth” value ([8]; Log10 Concentration -4.0 Molar) of the same compound?
Answer: -69%

Question: And the “Percent Growth” value ([8]; Log10 Concentration -5.0 Molar)?
Answer: -28%

Question: And the “Percent Growth” value ([8]; Log10 Concentration -6.0 Molar)?
Answer: 71%

Question: What about the “Percent Growth” value ([8]; Log10 Concentration -7.0 Molar) of the same compound?
Answer: 95%

Question: What about the “Percent Growth” value ([8]; Log10 Concentration -8.0 Molar) of the same compound?
Answer: 96%

Question: And the GI50 ([9]; Homo sapiens)?
Answer: 2.29 µM

Question: What about the CC50 [9, 18] of the same compound?
Answer: 21.3 µM

Question: And the “Percent Growth” value ([9]; Log10 Concentration -4.0 Molar)?
Answer: -100%

Question: And the “Percent Growth” value ([9]; Log10 Concentration -5.0 Molar)?
Answer: -26%

Question: What about the “Percent Growth” value ([9]; Log10 Concentration -6.0 Molar) of the same compound?
Answer: 93%

Question: What about the “Percent Growth” value ([9]; Log10 Concentration -7.0 Molar) of the same compound?
Answer: 88%

Question: What about the “Percent Growth” value ([9]; Log10 Concentration -8.0 Molar) of the same compound?
Answer: 80%

Question: And the GI50 ([10]; Homo sapiens)?
Answer: 5.39 µM

Question: And the CC50 [10, 18]?
Answer: > 100 µM

Question: What about the “Percent Growth” value ([10]; Log10 Concentration -4.0 Molar) of the same compound?
Answer: -48%

Question: And the “Percent Growth” value ([10]; Log10 Concentration -5.0 Molar)?
Answer: 36%

Question: What about the “Percent Growth” value ([10]; Log10 Concentration -6.0 Molar) of the same compound?
Answer: 89%

Question: And the “Percent Growth” value ([10]; Log10 Concentration -7.0 Molar)?
Answer: 102%

Question: What about the “Percent Growth” value ([10]; Log10 Concentration -8.0 Molar) of the same compound?
Answer: 98%

Question: And the GI50 ([11]; Homo sapiens)?
Answer: 2.22 µM

Question: What about the CC50 [11, 18] of the same compound?
Answer: 31.5 µM

Question: What about the “Percent Growth” value ([11]; Log10 Concentration -4.0 Molar) of the same compound?
Answer: -77%

Question: And the “Percent Growth” value ([11]; Log10 Concentration -5.0 Molar)?
Answer: -23%

Question: And the “Percent Growth” value ([11]; Log10 Concentration -6.0 Molar)?
Answer: 89%

Question: And the “Percent Growth” value ([11]; Log10 Concentration -7.0 Molar)?
Answer: 95%

Question: What about the “Percent Growth” value ([11]; Log10 Concentration -8.0 Molar) of the same compound?
Answer: 85%

Question: What about the GI50 ([12]; Homo sapiens, IGROV-1) of the same compound?
Answer: 4.5 µM

Question: What about the CC50 ([12]; Homo sapiens, IGROV-1, read-out: LC50 (the source's name)) of the same compound?
Answer: 43.2 µM

Question: What about the “Percent Growth” value ([12]; Log10 Concentration -4.0 Molar) of the same compound?
Answer: -97%

Question: What about the “Percent Growth” value ([12]; Log10 Concentration -5.0 Molar) of the same compound?
Answer: 32%

Question: What about the “Percent Growth” value ([12]; Log10 Concentration -6.0 Molar) of the same compound?
Answer: 85%

Question: And the “Percent Growth” value ([12]; Log10 Concentration -7.0 Molar)?
Answer: 94%

Question: And the “Percent Growth” value ([12]; Log10 Concentration -8.0 Molar)?
Answer: 90%

Question: And the GI50 ([13]; Homo sapiens)?
Answer: 3.21 µM

Question: And the CC50 [13, 18]?
Answer: 32.2 µM

Question: What about the “Percent Growth” value ([13]; Log10 Concentration -4.0 Molar) of the same compound?
Answer: -100%

Question: And the “Percent Growth” value ([13]; Log10 Concentration -5.0 Molar)?
Answer: 2%

Question: What about the “Percent Growth” value ([13]; Log10 Concentration -6.0 Molar) of the same compound?
Answer: 99%

Question: What about the “Percent Growth” value ([13]; Log10 Concentration -7.0 Molar) of the same compound?
Answer: 106%

Question: And the “Percent Growth” value ([13]; Log10 Concentration -8.0 Molar)?
Answer: 100%

Question: And the GI50 ([14]; Homo sapiens)?
Answer: 12.5 µM

Question: What about the CC50 [14, 18] of the same compound?
Answer: 50.1 µM

Question: What about the “Percent Growth” value ([14]; Log10 Concentration -4.0 Molar) of the same compound?
Answer: -100%

Question: What about the “Percent Growth” value ([14]; Log10 Concentration -5.0 Molar) of the same compound?
Answer: 66%

Question: What about the “Percent Growth” value ([14]; Log10 Concentration -6.0 Molar) of the same compound?
Answer: 96%

Question: What about the “Percent Growth” value ([14]; Log10 Concentration -7.0 Molar) of the same compound?
Answer: 102%

Question: And the “Percent Growth” value ([14]; Log10 Concentration -8.0 Molar)?
Answer: 96%

Question: And the GI50 ([15]; Homo sapiens)?
Answer: 5.29 µM

Question: What about the CC50 [15, 18] of the same compound?
Answer: 42.9 µM

Question: What about the “Percent Growth” value ([15]; Log10 Concentration -4.0 Molar) of the same compound?
Answer: -100%

Question: What about the “Percent Growth” value ([15]; Log10 Concentration -5.0 Molar) of the same compound?
Answer: 36%

Question: What about the “Percent Growth” value ([15]; Log10 Concentration -6.0 Molar) of the same compound?
Answer: 87%

Question: What about the “Percent Growth” value ([15]; Log10 Concentration -7.0 Molar) of the same compound?
Answer: 98%

Question: What about the “Percent Growth” value ([15]; Log10 Concentration -8.0 Molar) of the same compound?
Answer: 99%

Question: What about the GI50 ([16]; Homo sapiens) of the same compound?
Answer: 2.59 µM

Question: What about the CC50 [16, 18] of the same compound?
Answer: 29 µM

Question: What about the “Percent Growth” value ([16]; Log10 Concentration -4.0 Molar) of the same compound?
Answer: -95%

Question: And the “Percent Growth” value ([16]; Log10 Concentration -5.0 Molar)?
Answer: -11%

Question: What about the “Percent Growth” value ([16]; Log10 Concentration -6.0 Molar) of the same compound?
Answer: 93%

Question: And the “Percent Growth” value ([16]; Log10 Concentration -7.0 Molar)?
Answer: 105%

Question: What about the “Percent Growth” value ([16]; Log10 Concentration -8.0 Molar) of the same compound?
Answer: 97%

Question: What about the GI50 ([17]; Homo sapiens, K562) of the same compound?
Answer: 2.29 µM

Question: And the CC50 ([17]; Homo sapiens, K562, read-out: LC50 (the source's name))?
Answer: 22.8 µM

Question: What about the “Percent Growth” value ([17]; Log10 Concentration -4.0 Molar) of the same compound?
Answer: -100%

Question: What about the “Percent Growth” value ([17]; Log10 Concentration -5.0 Molar) of the same compound?
Answer: -22%

Question: And the “Percent Growth” value ([17]; Log10 Concentration -6.0 Molar)?
Answer: 90%

Question: And the “Percent Growth” value ([17]; Log10 Concentration -7.0 Molar)?
Answer: 87%

Question: What about the “Percent Growth” value ([17]; Log10 Concentration -8.0 Molar) of the same compound?
Answer: 88%
